Consider three molecules from patent publication US9328104B2, “Selective androgen receptor modulators” (Pfizer Inc., priority 2012, dated 2016).

Like-named read-outs stand apart in the source and are kept apart here.

This test deals with T1, full length human Androgen Receptor (AR) (Homo sapiens, UniProt P10275).
T1 construct: transiently transfected in T225 cm^2 flasks with a full length human Androgen Receptor (AR) cDNA; expressed in transfected cells; host or cells: CV-1 cells (ATCC CCL-70), transiently transfected with AR cDNA in pcDNA3 and ARE-luciferase in pGL3
T1 sequence (P10275 1-920): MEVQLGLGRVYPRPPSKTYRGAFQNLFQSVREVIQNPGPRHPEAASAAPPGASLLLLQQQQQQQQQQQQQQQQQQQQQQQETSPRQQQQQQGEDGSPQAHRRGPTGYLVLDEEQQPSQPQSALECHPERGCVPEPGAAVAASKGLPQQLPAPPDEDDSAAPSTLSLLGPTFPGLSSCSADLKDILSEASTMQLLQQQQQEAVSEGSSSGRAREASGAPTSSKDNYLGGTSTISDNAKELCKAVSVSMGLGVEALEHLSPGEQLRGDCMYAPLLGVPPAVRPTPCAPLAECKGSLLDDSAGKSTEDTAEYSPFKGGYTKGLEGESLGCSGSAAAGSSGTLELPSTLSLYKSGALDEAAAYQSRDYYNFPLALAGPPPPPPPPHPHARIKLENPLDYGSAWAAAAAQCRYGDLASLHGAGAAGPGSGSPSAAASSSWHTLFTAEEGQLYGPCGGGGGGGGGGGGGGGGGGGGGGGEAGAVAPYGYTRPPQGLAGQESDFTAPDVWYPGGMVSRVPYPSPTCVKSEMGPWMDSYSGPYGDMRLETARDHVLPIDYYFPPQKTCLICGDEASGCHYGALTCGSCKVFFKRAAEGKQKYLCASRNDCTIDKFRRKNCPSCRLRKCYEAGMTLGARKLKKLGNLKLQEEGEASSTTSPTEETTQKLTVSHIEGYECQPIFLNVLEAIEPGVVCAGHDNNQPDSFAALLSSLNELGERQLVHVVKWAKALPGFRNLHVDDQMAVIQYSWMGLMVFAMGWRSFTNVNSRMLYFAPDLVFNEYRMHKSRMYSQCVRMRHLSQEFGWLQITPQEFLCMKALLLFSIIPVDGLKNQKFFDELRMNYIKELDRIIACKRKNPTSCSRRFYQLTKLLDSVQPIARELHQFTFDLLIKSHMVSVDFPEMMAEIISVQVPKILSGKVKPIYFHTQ
The test can be described thus: Androgen Receptor-Mediated Transcriptional Assay (ARE-luciferase reporter in transiently transfected CV-1 cells). The class given is cell-based. How it is done: Androgen Receptor-Mediated Transcriptional Assay Summary
CV-1 cells (American Tissue Culture Collection cat# CCL-70) were expanded in Growth Media and transiently transfected in T225 cm^2 flasks with a full length human Androgen Receptor (AR) cDNA in the pcDNA3 expression vector and a human Androgen Response Element (ARE)-luciferase cDNA in the pGL3 vector (both from Invitrogen). DNA (μg) and Lipofectamine (μl) at a ratio of 1:3 were incubated with the cells in a total volume of 55 mL Basal Media for 4 hours. Cells were harvested by trypsinization and frozen back (−150° C. cryomed) at a concentration of 4.3 million cells/mL.
On the day of the assay, frozen cells were thawed and re-suspended in Re-suspension Media and plated at 40,000 cells/well (in 100 μL volume) in 96 well white plates and were incubated for at least 4 h at 37° C., 5% CO2. After incubation, cells were treated with the compounds to be screened. 10 mM stocks of the compounds were serially diluted 1:10 in 100% DMSO followed by an additional 1:100 dilution in Assay Media. These dilution series were added to the cell plates resulting in a further 1:10 dilution and a final % DMSO of 0.1%. The vehicle control wells also contained this dilution of DMSO and the positive control wells contained […] (DHT) as an AR agonist at final concentration of 0.3 nM in 0.1% DMSO. Cells were incubated for 16-18 hours at 37° C. and 5% CO2. Then the culture media was removed from and the cells were lysed in 20 μL of cell lysis reagent for 5 minutes at room temperature. 50 μL of luciferase reagent was added to each well and luminescence, over 5 seconds, was measured.
EC50 (half maximal effective concentration) was calculated from concentration series plots which generated sigmoidal curves. Xlfit software was used to plot the best fit of the % effect vs concentration and to calculate the EC50.
Reagents and Materials used in the Androgen Receptor-Mediated Transcriptional Assay include the following: • Growth Media—DMEM/high glucose—10% FBS: 500 ml phenol red DMEM/high glucose (Gibco, Grand Island N.Y., cat #10569-010), 10% non heat-inactivated Fetal Bovine Serum (FBS) (Atlanta Biologicals, Norcross Ga., cat #S-12450), 1% Nonessential Amino Acids (Gibco, cat #11140-050), 1% Penicillin-Streptomycin (Gibco, cat #15140-122) • Basal Media—phenol red free DMEM/high glucose (Gibco, cat #31053-028)+1% Na Pyruvate (Gibco, cat #11360-070), 1% Nonessential Amino Acids (Gibco, cat #11140-050), 1% GlutaMAX-I (Gibco, cat #35050-061) • Re-suspension Media—basal media+1% Penicillin-Streptomycin (Gibco, cat #15140-122) • Assay Media—basal media+5% charcoal stripped FBS (HyClone, Logan Utah, Cat #SH30068)+1% Penicillin-Streptomycin (Gibco, cat #15140-122) • Cell Lysis Reagent—Promega, Cat #PAE1531 • Luciferase Reagent—Promega, Cat #PAE1483

The EC50 is the midpoint of the concentration-response curve. The molecule `CCN1C[C@@H](C)CN(c2ccc3c(C#N)nccc3c2)S1(=O)=O` (single isomer, unassigned) [Compound 16] displayed an EC50 of 262 nM.
Molecule `N#Cc1nccc2cc(N3CCC[C@H]3[C@@H](O)C(F)(F)F)ccc12` (single isomer, unassigned) [Compound 37] had a concentration for a half-maximal effect (EC50) of 9.1 nM.
For “6-{(2R,5R)-2-[(1R)-1-hydroxyethyl]-5-methylpyrrolidin-1-yl}isoquinoline-1-carbonitrile [Compound 31]”, the concentration giving a half-maximal response (EC50) (CV-1 cells transfected with human AR and ARE-luciferase, 16-18 hours incubation, luminescence, read-out: EC50 Values for Compounds 23-39 from Androgen Receptor-Mediated Transcriptional Assay) came to 474 nM.
